In patent publication US20210015857A1, “METHOD FOR IMMUNOTHERAPY DRUG TREATMENT” (The University of Western Australia, priority 2018, published 2021):

Tests used:
[1] = system: Renca kidney cancer tumours; experiment: Oral retinoids combined with ICB in Renca kidney cancer-bearing mice; format: in vivo, mouse; conditions: retinoid oral 6 days from day 9, ICB days 12, 14, 16 (FIG. 24)
Procedure: The following retinoids and dosages were employed: Bexarotene (Saphire Bioscience) was dosed at 100 mg/kg; tretinoin and isotretinoin (Sigma-Aldrich) were all dosed at 10 mg/kg.

[2] = system: Renca kidney cancer; experiment: pSTAT1 flow cytometry of tumours after tretinoin; format: in vivo, mouse; conditions: tretinoin (FIG. 22C)
Procedure: (§1) For detection of phospho-STAT1, dissociated tumours were stained with surface antibodies, fixed with 1.5% formaldehyde for 10 minutes, then permeabilized with ice-cold methanol at 4° C. for 10 minutes. Cells were stained with a rabbit-anti-pSTAT1 antibody (Tyr701) -PE (Cell Signaling Technology) for 30 minutes at room temperature (RT).
To test whether retinoids induce the ICB response-associated phenotype characterised by increased NK cells, inflammatory markers and pSTAT1 positive leukocytes in the tumour, Renca kidney cancer-bearing mice were treated for […] with oral tretinoin (10 mg/kg) starting on day 12 and harvested tumours on day 15 for flow cytometry. In subsequent experiments AB1-HA mesothelioma or CT26 colorectal cancer tumour-bearing mice were treated with tretinoin for 3 days at 10 mg/kg i.p., starting on day 10 and harvested tumours on day 13 for flow cytometry and immunohistochemistry.

[3] = system: CT26 colorectal tumours; experiment: pSTAT1 immunohistochemistry of tumours after tretinoin; format: in vivo, mouse; conditions: tretinoin 10 mg/kg (FIG. 22A, B)
Procedure: For immunohistochemical staining of STAT1 and pSTAT1, slides of 4-μm thickness were cut from formalin-fixed, parafin-embedded (FFPE) tissue blocks. Subsequently, slides were deparafinized in two changes of xylene for about 5 min followed by rehydration in changes of 100%, 96%, 70% and 40% ethanol and distilled water. Next, for STAT1 staining, antigen retrieval using 10 mM citrate buffer (pH 6.0) was performed for about 10 min at 121° C. using a pressure cooker (the PT-module, Thermo scientific, labvision). For pSTAT1 staining, slides were sub-boiled in 1 M EDTA buffer (pH 8.0) for about 10 minutes in a microwave. Slides were rinsed in TBST and the endogenous peroxidase was blocked using 3% hydrogen peroxidase (Sigma) in distilled water. Sections were washed again in TBST and blocked with goat serum (Vectastain) diluted in PBS as per manufacturer's instructions. Primary antibody, STAT1 or pSTAT1 (Cell Signaling, dilution: 1/800 and 1/200 respectively), was incubated for 60 minutes at room temperature (RT). Sections were washed and secondary antibody, goat anti-Rb IgG-HRP (Santa Cruz), was incubated for about 30 minutes at RT, before washing again. Betazoid DAB chromogen (Biocare Medical) was prepared as per manufacturer's instructions. Chromogen was applied, sections were monitored for the development of a brown colour and the reaction was stopped with H2O. […]

[4] = system: AB1-HA mesothelioma tumours; experiment: Tretinoin combined with ICB in AB1-HA tumour-bearing mice, tumour growth; format: in vivo, mouse
Procedure: […] The administration of tretinoin to the mice started either 3 days before ICB or at the same time as the ICB (arm 6). Tretinoin was dosed at three dosages; 10 mg/kg (arm 3), 5 mg/kg (arm 4) or 1 mg/kg (arm 5) and was given for 9 days in total.

[5] = system: urothelial cancer; conditions: 348 urothelial cancer patients; cited from earlier work
[6] = system: melanoma; conditions: melanoma cohort n=33; cited from earlier work
[7] = system: AE17 mesothelioma tumours; experiment: Poly(I:C) pretreatment followed by ICB with or without IFNAR blocking antibody, tumour growth; format: in vivo, mouse
Procedure: To test whether the mechanism underlying the priming effect of Poly-I:C was mediated through IFN alpha/beta induction (as discussed in Example 6), priming experiments were repeated while adding blocking antibodies against the IFN alpha/beta receptor (IFNAR). C57BL/6 AE17 mesothelioma tumour-bearing mice were treated with CPB on day 22 after tumour inoculation, with or without pretreatment of 3 days of 50 μg s.c. Poly-I:C in the tumour area (day 17-19), with or without blocking antibodies against IFNAR (e.g., […] monoclonal antibody MAR1-5A3 as sourced from BiXcell) (0.5 mg i.p., 3 times/week) starting at the same time.

[8] = system: AE17 mesothelioma tumours; experiment: Flow cytometry of AE17 tumours after intratumoural IFN alpha or poly(I:C) pretreatment; format: in vivo, mouse; conditions: intratumoural 3 days, vs PBS (FIG. 17)
Procedure: For flow cytometry, tumours were harvested and immediately submerged in cold PBS, cut into 1-2 mm pieces with a scalpel blade and dissociated using the GentleMACS system. Fc block (anti-CD16/CD32, BD) was used for 10 minutes on ice. UV Zombie live/dead (Biolegend) was used to discriminate live cells. Cells were permeabilized and fixed using FoxP3 fix/Perm buffer kit (Biolegend) before addition of antibodies for 20 minutes at RT. See Supplementary Table 2 for antibody details. Cells were kept in stabilizing fixative until acquisition. Data were acquired on a BD Fortessa flow cytometer and analyzed using FlowJo software (TreeStar).
as §1
To verify the potential of recombinant IFN alpha to induce the response-associated phenotype (i.e., to sensitise the tumour cellular microenvironment to ICB) similarly to Poly-I:C, AE17 mesothelioma tumour-bearing mice were pretreated with Poly-I:C or recombinant IFN alpha (: R&D systems) intratumourally for 3 days (or PBS control). […]

## C=C(c1ccc(C(=O)O)cc1)c1cc2c(cc1C)C(C)(C)CCC2(C)C [bexarotene]
[1]
  percentage of complete regression after combination therapy with ICB, compared to ICB alone: increased percentage of complete regression

## CC1=C(/C=C/C(C)=C/C=C/C(C)=C\C(=O)O)C(C)(C)CCC1 [isotretinoin, 13-cis-retinoic acid]
[1]
  percentage of complete regression after combination therapy with ICB, compared to ICB alone: increased percentage of complete regression

## CC1=C(/C=C/C(C)=C/C=C/C(C)=C/C(=O)O)C(C)(C)CCC1 [tretinoin, all-trans retinoic acid]
[2]
  pSTAT1 positive leukocytes in tumours (flow cytometry): increased pSTAT1 positive leukocytes in tumours, particularly in MHC class II positive cells
[3]
  pSTAT1 immune cell infiltrates in tumours (immunohistochemistry): increased patches of pSTAT1 immune cell infiltrates
[4]; AB1-HA (FIG. 21)
  efficacy of ICB, retinoid before ICB vs at same time as ICB: markedly improved the efficacy of ICB compared to when the retinoid was administered at same time as ICB
[4]; AB1-HA, tretinoin 10 mg/kg i.p. 9 days from day 6, anti-PD-L1 days 8, 10, 12 (FIG. 23)
  efficacy of combination with anti-PD-L1 antibody alone as ICB: more efficacious than use of the antibody alone
[4]; AB1-HA, tretinoin 10, 5 or 1 mg/kg for 9 days starting 3 days before anti-CTLA4/anti-PD-L1 (FIG. 21)
  response of the tumours to ICB: improved the response of the tumours to ICB in a dose-dependent manner

## atezolizumab: anti-PD-L1 antibody
[5]
  best response: complete responders (CR), number of patients: 25
  best response: partial responders (PR), number of patients: 43
  best response: progressors (PD), number of patients: 167
  best response: stable disease (SD), number of patients: 63

## nivolumab: anti-PD1 antibody
[6]
  non-responsive (PD), number of patients: 23
  responsive (CR and PR), number of patients: 10

## olyinosinic:polycytidylic acid [poly(I:C)]
[7]; cotreatment with IFNAR blocking antibodies (FIG. 16)
  beneficial effect of pretreatment under IFNAR blockade: abrogated
[7]; poly(I:C) 3 days before ICB, vs ICB alone (FIG. 16)
  tumour growth: clear delay in tumour growth compared to ICB alone
[8]
  NK infiltration (NK cells of all leukocytes): increased NK cell numbers
  STAT1 phosphorylation (pSTAT1 activation): pSTAT1 activation
